Measured values from PubChem BioAssay AID248 (DTP/NCI, 2004).
Toxic doses and inconclusive results are not listed. Numbered stars: 1 amine (or outer) side, 2 acyl side, 3 side chain; on linkers, the order of the positions; unused ones are H or OH. Bridge positions count the residues as written; N and C are the ends. Square brackets hold non-standard residues; d marks the D form. Peptide text beside a SMILES is read from it. I, II: the chains in the order shown. Actinocin(1to9) = Cc1c2oc3c(C)ccc(C(=O)[*:2])c3nc-2c(C(=O)[*:1])c(N)c1=O; X5 = O=C1CC(C(=O)[*:2])N([*:1])C1; NMeV = CN[CH](C(=O)O)C(C)C; Sar = CNCC(=O)O

Test system: L1210 leukemia ip in BDF1 mice, survival T/C
Assay: NCI In Vivo Anticancer Drug Screen. Data for tumor model L1210 Leukemia (intraperitoneal) in B6D2F1 (BDF1) mice
Details: higher = longer survival
Method in brief: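 Value reflects the ratio of survival in compound-treated mice to survival in vehicle-treated controls, with both groups carrying the same transplanted tumor.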

[1] = endpoint: mean survival time, dose: 50.0 mg/kg/injection, schedule: Q01DX009 (ip), vehicle: Klucel (hydroxypropylcellulose) (HPC)
[2] = endpoint: mean survival time, dose: 100.0 mg/kg/injection, schedule: Q01DX009 (ip), vehicle: Klucel (hydroxypropylcellulose) (HPC)
[3] = endpoint: mean survival time, dose: 200.0 mg/kg/injection, schedule: Q01DX009 (ip), vehicle: Klucel (hydroxypropylcellulose) (HPC)
[4] = endpoint: mean survival time, dose: 400.0 mg/kg/injection, schedule: Q01DX009 (ip), vehicle: Klucel (hydroxypropylcellulose) (HPC)
[5] = endpoint: mean survival time, dose: 200.0 mg/kg/injection, schedule: Q04DX002 (ip), vehicle: saline with Tween-80
[6] = endpoint: mean survival time, dose: 100.0 mg/kg/injection, schedule: Q01DX001 (ip), vehicle: saline
[7] = endpoint: mean survival time, dose: 200.0 mg/kg/injection, schedule: Q01DX001 (ip), vehicle: saline
[8] = endpoint: mean survival time, dose: 400.0 mg/kg/injection, schedule: Q01DX001 (ip), vehicle: saline
[9] = endpoint: mean survival time, dose: 100.0 mg/kg/injection, schedule: Q04DX002 (ip), vehicle: Klucel (hydroxypropylcellulose) (HPC)
[10] = endpoint: mean survival time, dose: 200.0 mg/kg/injection, schedule: Q04DX002 (ip), vehicle: Klucel (hydroxypropylcellulose) (HPC)
[11] = endpoint: mean survival time, dose: 400.0 mg/kg/injection, schedule: Q04DX002 (ip), vehicle: Klucel (hydroxypropylcellulose) (HPC)
[12] = endpoint: mean survival time, dose: 100.0 mg/kg/injection, schedule: Q04DX003 (ip), vehicle: Klucel (hydroxypropylcellulose) (HPC)
[13] = endpoint: mean survival time, dose: 200.0 mg/kg/injection, schedule: Q04DX003 (ip), vehicle: Klucel (hydroxypropylcellulose) (HPC)
[14] = endpoint: mean survival time, dose: 400.0 mg/kg/injection, schedule: Q04DX003 (ip), vehicle: Klucel (hydroxypropylcellulose) (HPC)

Nc1[nH]c(=O)ncc1-c1ccc(Cl)cc1
T/C [1]: 96 % of control
T/C [2]: 100 % of control

O=C(NCCCCCCCCCCCCNC(=O)Nc1ccc(C2=NCC(O)CN2)cc1)Nc1ccc(C2=NCC(O)CN2)cc1 (stereo not drawn)
T/C (endpoint: mean survival time, dose: 62.5 mg/kg/injection, schedule: Q01DX Z (ip), vehicle: carboxymethylcellulose (CMC)): 113 % of control
T/C (endpoint: mean survival time, dose: 250.0 mg/kg/injection, schedule: Q01DX Z (ip), vehicle: carboxymethylcellulose (CMC)): 122 % of control

CCc1ccccc1NC(=O)Nc1ccc(Cl)cc1
T/C (endpoint: mean survival time, dose: 100.0 mg/kg/injection, schedule: Q01DX009 (ip), vehicle: gum acacia): 96 % of control
T/C (endpoint: mean survival time, dose: 100.0 mg/kg/injection, schedule: Q04DX003 (ip), vehicle: gum acacia): 95 % of control
T/C (endpoint: mean survival time, dose: 200.0 mg/kg/injection, schedule: Q01DX009 (ip), vehicle: gum acacia): 96 % of control
T/C (endpoint: mean survival time, dose: 200.0 mg/kg/injection, schedule: Q04DX003 (ip), vehicle: gum acacia): 98 % of control
T/C (endpoint: mean survival time, dose: 400.0 mg/kg/injection, schedule: Q01DX009 (ip), vehicle: gum acacia): 97 % of control
T/C (endpoint: mean survival time, dose: 400.0 mg/kg/injection, schedule: Q04DX003 (ip), vehicle: gum acacia): 97 % of control

CCOc1cc(/C=N\N=C\c2ccc(O)c(OCC)c2)ccc1O
T/C [2]: 93 % of control
T/C [3]: 94 % of control
T/C [4]: 88 % of control

Cc1ccc(NC(=S)Nc2ccc(Cc3ccc(NC(=S)Nc4ccc(C)cc4)cc3)cc2)cc1
T/C (endpoint: mean survival time, dose: 100.0 mg/kg/injection, schedule: Q04DX002 (ip), vehicle: saline with Tween-80): 98 % of control
T/C [5]: 103 % of control
T/C (endpoint: mean survival time, dose: 400.0 mg/kg/injection, schedule: Q04DX002 (ip), vehicle: saline with Tween-80): 88 % of control

c1ccc2nc(CCC3CCCCN3)ccc2c1 (stereo not drawn)
T/C (endpoint: mean survival time, dose: 333.0 mg/kg/injection, schedule: Q01DX Z (ip), vehicle: methylcellulose (MC)): 101 % of control

CN(C)CCCN1CCC2(CCC(CO)CC2)CC1
T/C [6]: 94 % of control
T/C [7]: 94 % of control
T/C [8]: 102 % of control

Cc1c2oc3c(C)ccc(C(=O)NC4C(=O)NC(C(C)C)C(=O)N5CCCC5C(=O)N(C)CC(=O)N(C)C(C(C)C)C(=O)OC4C)c3nc-2c(C(=O)NC2C(=O)NC(C(C)C)C(=O)N3CC(=O)CC3C(=O)N(C)CC(=O)N(C)C(C(C)C)C(=O)OC2C)c(N)c1=O (stereo not drawn) (I: TV[X5][Sar][NMeV] / II: TVP[Sar][NMeV]; ester I:1-I:C, II:1-II:C; linker I:N-II:N via Actinocin(1to9); configuration not given here)
T/C (endpoint: median survival time, dose: 3.1 micrograms/kg/injection, schedule: Q01DX009 (ip), vehicle: water): 108 % of control
T/C (endpoint: median survival time, dose: 6.2 micrograms/kg/injection, schedule: Q01DX009 (ip), vehicle: water): 120 % of control
T/C (endpoint: median survival time, dose: 12.5 micrograms/kg/injection, schedule: Q01DX009 (ip), vehicle: water): 116 % of control
T/C (endpoint: median survival time, dose: 18.7 micrograms/kg/injection, schedule: Q04DX003 (ip), vehicle: water): 108 % of control
T/C (endpoint: median survival time, dose: 25.0 micrograms/kg/injection, schedule: Q01DX009 (ip), vehicle: water): 108 % of control
T/C (endpoint: median survival time, dose: 37.5 micrograms/kg/injection, schedule: Q04DX003 (ip), vehicle: water): 113 % of control

CN(CCNC(=O)C1C(c2ccccc2)C1c1ccccc1)C(=O)C1C(c2ccccc2)C1c1ccccc1 (stereo not drawn)
T/C [9]: 95 % of control
T/C [10]: 89 % of control
T/C [11]: 89 % of control

CCCCCCCCCCc1ccccc1
T/C (endpoint: mean survival time, dose: 12.5 mg/kg/injection, schedule: Q04DX002 (ip), vehicle: saline with Tween-80): 100 % of control
T/C (endpoint: mean survival time, dose: 25.0 mg/kg/injection, schedule: Q04DX002 (ip), vehicle: saline with Tween-80): 97 % of control
T/C (endpoint: mean survival time, dose: 50.0 mg/kg/injection, schedule: Q04DX002 (ip), vehicle: saline with Tween-80): 93 % of control
T/C [5]: 112 % of control

CCOc1cc(/C=N/NC(=S)NC23CC4CC(CC(C4)C2)C3)ccc1O
T/C (endpoint: mean survival time, dose: 75.0 mg/kg/injection, schedule: Q01DX001 (ip), vehicle: acetone): 101 % of control
T/C (endpoint: mean survival time, dose: 150.0 mg/kg/injection, schedule: Q01DX001 (ip), vehicle: acetone): 92 % of control
T/C (endpoint: mean survival time, dose: 300.0 mg/kg/injection, schedule: Q01DX001 (ip), vehicle: acetone): 94 % of control

Nc1ccccc1N=Cc1cc(F)ccc1[N+](=O)[O-]
T/C (endpoint: mean survival time, dose: 100.0 mg/kg/injection, schedule: Q04DX003 (ip), vehicle: other): 97 % of control
T/C (endpoint: mean survival time, dose: 200.0 mg/kg/injection, schedule: Q04DX003 (ip), vehicle: other): 102 % of control
T/C (endpoint: mean survival time, dose: 400.0 mg/kg/injection, schedule: Q04DX003 (ip), vehicle: other): 114 % of control

C1CSCCS1
T/C [2]: 101 % of control
T/C [3]: 117 % of control
T/C [4]: 100 % of control

NNc1ccc(-c2ccc(NN)cc2)cc1
T/C (endpoint: mean survival time, dose: 200.0 mg/kg/injection, schedule: Q04DX003 (ip), vehicle: saline with Tween-80): 95 % of control
T/C (endpoint: mean survival time, dose: 400.0 mg/kg/injection, schedule: Q04DX003 (ip), vehicle: saline with Tween-80): 98 % of control

CC1CCCCN1Cc1ccccc1COC(=O)c1ccc(Br)cc1 (stereo not drawn)
T/C [9]: 101 % of control
T/C [10]: 92 % of control
T/C [11]: 96 % of control

Fc1cc(F)c(CCl)c(F)c1
T/C (endpoint: mean survival time, dose: 100.0 mg/kg/injection, schedule: Q01DX009 (ip), vehicle: acetone): 94 % of control

COc1cc2c(cc1OC)C(CCC(=O)O)=NCC2
T/C (endpoint: mean survival time, dose: 12.5 mg/kg/injection, schedule: Q04DX002 (ip), vehicle: saline): 101 % of control
T/C (endpoint: mean survival time, dose: 25.0 mg/kg/injection, schedule: Q04DX002 (ip), vehicle: saline): 104 % of control
T/C (endpoint: mean survival time, dose: 50.0 mg/kg/injection, schedule: Q04DX002 (ip), vehicle: saline): 90 % of control

CCCCNc1nc(N)nc(N)c1[N+](=O)[O-]
T/C [12]: 103 % of control
T/C [13]: 98 % of control
T/C [14]: 101 % of control

CC(=O)Nc1ccc(NC(=O)/C=C/c2ccccc2)cc1
T/C [2]: 103 % of control
T/C [3]: 95 % of control
T/C [4]: 105 % of control

Nc1ccc(S(=O)(=O)O)c2ccccc12
T/C (endpoint: mean survival time, dose: 50.0 mg/kg/injection, schedule: Q01DX001 (ip), vehicle: saline): 94 % of control
T/C [6]: 94 % of control
T/C [7]: 103 % of control
T/C [8]: 94 % of control

CCCC1=NNc2n[nH]c(=S)n2N1
T/C (endpoint: mean survival time, dose: 12.5 mg/kg/injection, schedule: Q01DX009 (ip), vehicle: Klucel (hydroxypropylcellulose) (HPC)): 93 % of control
T/C (endpoint: mean survival time, dose: 25.0 mg/kg/injection, schedule: Q01DX009 (ip), vehicle: Klucel (hydroxypropylcellulose) (HPC)): 90 % of control
T/C [1]: 98 % of control
T/C [12]: 100 % of control
T/C [13]: 96 % of control

CCOC(=O)c1cc(C)n(-c2ccc(C(=O)O)cc2)c1C
T/C [1]: 97 % of control
T/C [2]: 95 % of control
T/C [12]: 98 % of control
T/C [3]: 95 % of control
T/C [13]: 91 % of control

CCC(=O)c1cc(Cl)ccc1O
T/C (endpoint: mean survival time, dose: 100.0 mg/kg/injection, schedule: Q01DX009 (ip), vehicle: other): 100 % of control
T/C (endpoint: mean survival time, dose: 200.0 mg/kg/injection, schedule: Q01DX009 (ip), vehicle: other): 104 % of control
T/C (endpoint: mean survival time, dose: 400.0 mg/kg/injection, schedule: Q01DX009 (ip), vehicle: other): 102 % of control

COC(=O)c1ccc(C(=O)OC)c(=O)[nH]1
T/C [2]: 109 % of control
T/C [12]: 103 % of control
T/C [3]: 101 % of control
T/C [13]: 102 % of control
T/C [4]: 102 % of control
T/C [14]: 97 % of control

CNC(=N)c1ccc(NC(=N)c2ccc(NC(=N)c3ccc(NC(=O)Nc4ccc(C(=N)NC)cc4)cc3)cc2)cc1
T/C (endpoint: mean survival time, dose: 1.87 mg/kg/injection, schedule: Q01DX015 (ip), vehicle: water): 114 % of control
T/C (endpoint: mean survival time, dose: 3.0 mg/kg/injection, schedule: Q01DX015 (sc), vehicle: water): 103 % of control
T/C (endpoint: mean survival time, dose: 4.4 mg/kg/injection, schedule: Q01DX015 (sc), vehicle: water): 101 % of control
T/C (endpoint: mean survival time, dose: 6.7 mg/kg/injection, schedule: Q01DX015 (sc), vehicle: water): 103 % of control
T/C (endpoint: mean survival time, dose: 7.5 mg/kg/injection, schedule: Q01DX015 (ip), vehicle: water): 206 % of control
T/C (endpoint: mean survival time, dose: 15.0 mg/kg/injection, schedule: Q01DX015 (sc), vehicle: water): 206 % of control
T/C (endpoint: mean survival time, dose: 22.5 mg/kg/injection, schedule: Q01DX015 (sc), vehicle: water): 158 % of control

O=NN(Cc1ccccc1)C(c1ccccc1)S(=O)(=O)O (stereo not drawn)
T/C (endpoint: mean survival time, dose: 75.0 mg/kg/injection, schedule: Q01DX009 (ip), vehicle: saline): 87 % of control
T/C [6]: 112 % of control
T/C (endpoint: mean survival time, dose: 150.0 mg/kg/injection, schedule: Q01DX009 (ip), vehicle: saline): 87 % of control
T/C [7]: 100 % of control
T/C (endpoint: mean survival time, dose: 300.0 mg/kg/injection, schedule: Q01DX009 (ip), vehicle: saline): 97 % of control
T/C [8]: 93 % of control
